# Experimental data: patent US12441687B2, “Drp1-filamin complex formation inhibitors” (RDISCOVERY, LLC, priority 2019, dated 2025)
# Assays:
# [1] = system: hypertensive and hyperglycemic patients; assay: Retrospective analysis of blood HbA1c in hypertensive and hyperglycemic patients; type: in vivo, human; conditions: patients administered cilnidipine compared with patients administered amlodipine, FIG. 7
# Experimental: Effects of cilnidipine on intractable disease were examined. The results shown in this Exemplary Experiment were obtained from retrospective analyses on patients in Kyushu University Hospital. In this Exemplary Experiment, percentages of blood HbA1c in hypertensive and hyperglycemic patients administered amlodipine, and in hypertensive and hyperglycemic patients administered cilnidipine, were evaluated.
# [2] = system: H9c2 cell overexpressing wild type filamin A gene fused with mCherry tag; assay: Mitochondrial division promoted by overexpressed wild type filamin A in H9c2 cells; type: cell-based, murine; conditions: Exemplary Experiment 9, 1 μM, 24 hours, FIG. 9(b)
# Experimental: (§1) An expression vector of wild type filamin A gene fused with mCherry tag, or, an expression vector of A1545T mutant of filamin A gene fused with mCherry tag was transduced into H9c2 cell, which is a murine heart striated muscle cell line, and allowed to overexpress. Also a group, having an expression vector of mCherry transduced and allowed to overexpress therein, was prepared for comparison.
# (§2) The cells were cultured for 24 hours, cilnidipine or NS4-238 was added to the culture medium while adjusting the final concentration to 1 μM, and the cells were further cultured for 24 hours. Also a group having DMSO added thereto in place of the drugs was prepared for comparison.
# (§3) The cells were then stained in the same way as described in Exemplary Experiment 1 using MitoTracker Green FM (from Thermo Fischer Scientific Inc.). The cells were observed under a fluorescent microscope, and the shape of mitochondria was quantified by image analysis.
# calcium channel = assay: Calcium channel blocking: intracellular calcium increase after potassium chloride stimulation in Neuro-2a cells (Fura 2-AM); type: cell-based, murine
# Experimental: Effect of blocking the calcium channel by the cilnidipine derivative, synthesized in Exemplary Experiment 7, was examined. More specifically, first, Neuro-2a cells which belong to a cell line of murine neuroblastoma were cultured in serum-free culture media, and Fura 2-AM (from Dojindo Laboratories) as a calcium ion probe was added to the culture media, so as to transduce it into the cells.
# The culture media were then replaced with HEPES buffered nutrient solution (pH7.4), and each of cilnidipine, and the individual compounds namely NS4-019, NS4-021, NS4-043, NS4-238, and NS4-700, synthesized in Exemplary Experiment 7, was added to the culture media so as to adjust the final concentrations to 0, 1, 10, 100, and 1,000 nM, and the culture media were incubated for 30 minutes.
# Depolarizing stimulation was then given by adding potassium chloride solution (to a final concentration of 60 mM), and inflow of calcium ions into the cells was observed under a fluorescent microscope.
# FIG. 12 is a graph that illustrates increase of intracellular calcium ion concentration after potassium chloride stimulation. In FIG. 12, “CIL” represents results obtained from the cells having cilnidipine added thereto, “NS4-238” represents results obtained from the cells having NS4-238 added thereto, and “**” represents presence of significant difference at p<0.01. […]
# Drp1-filamin complex = Drp1-filamin complex (Homo sapiens, UniProt O00429+P21333); conditions: Non Patent Literature 1; cited from earlier work
# [3] = system: myocardial cells from neonatal rat; assay: Aging of myocardial cell (p53 accumulation) under hypoxic-reoxygenation stimulation; type: cell-based; conditions: Exemplary Experiment 10, 1 μM, hypoxic (1%) 18 hours then normoxic (21%) 18 hours, FIG. 10
# Experimental: How the cilnidipine derivatives, synthesized in Exemplary Experiment 7, can affect aging of myocardial cell was examined. Aging of myocardial cell was evaluated on the basis of accumulation of p53 protein. More specifically, each of cilnidipine, and the individual compounds namely NS4-019, NS4-021 and NS4-043, synthesized in Exemplary Experiment 7, was added to a culture medium of the myocardial cells from neonatal rat, so as to adjust the final concentration to 1 μM, and the cells were incubated for one hour. The cells were then subjected to hypoxic-reoxygenation stimulation, by cultivation under hypoxic (1%) environment for 18 hours, followed by cultivation under normoxic (21%) environment for 18 hours. The cells in each culture were then fixed with 4% paraformaldehyde, and immunostained with anti-p53 antibody and anti-α-actinin antibody. α-Actinin is a marker of myocardial cell. The cells in each culture were observed under a fluorescent microscope, and percentage of p53 accumulating cells relative to the α-actinin-positive cells was determined.
# [4] = system: myocardial cells from the neonatal rat; assay: Evaluation of degree of mitochondrial division under hypoxia (MitoTracker Green FM, image analysis); type: cell-based
# Experimental: A system for quantitatively evaluating degree of intracellular mitochondrial division was built. More specifically, myocardial cells obtained from a neonatal rat were cultured under normoxia (20%) or under hypoxia (1%) for 16 hours. The cells were then stained with a fluorescent dye (MitoTracker Green FM, from Thermo Fisher Scientific Inc.) that selectively stains mitochondria. The cells were observed under a fluorescent microscope, and the shape of mitochondria was quantified by image analysis.
# FIG. 2(c) is a graph that illustrates length of mitochondria from the myocardial cells of a neonatal rat cultured under normoxia or hypoxia. In FIG. 2(c), “Normoxia” represents results obtained from culture under the normal oxygen concentration, and “Hypoxia” represents results obtained from culture under the low oxygen concentration. […]
# Each of the aforementioned compounds was added to a culture medium of the myocardial cells from the neonatal rat, so as to adjust the final concentration to 1 μM, the cells were incubated for one hour, and further cultured under hypoxic environment for 16 hours. The cells were then stained in the same way as described in Exemplary Experiment 1 using MitoTracker Green FM (from Thermo Fischer Scientific Inc.), observed under a fluorescent microscope, and the shape of mitochondria was quantified. […]
# [5] = system: model mice of type 1/2 diabetes (STZ); assay: Blood sugar level in streptozotocin model mice of type 1/2 diabetes; type: in vivo; conditions: STZ 200 mg/kg mice, osmotic pump 5,000 μg/kg from 14th day, FIG. 6
# Experimental: Effects of cilnidipine on intractable disease were examined. In this Exemplary Experiment, cilnidipine was administered to model mice of type 1/2 diabetes, and the blood sugar level was measured over time. The model mice of type 1/2 diabetes employed were mice intraperitoneally administered 200 mg/kg of streptozotocin (STZ) on the 42nd day after birth. Also mouse without streptozotocin administration were prepared for comparison.
# Blood sugar levels of mice in the individual groups were measured over time after the start of experiment. On the 14th day after the start of experiment, an osmotic pump containing 5,000 μg/kg of cilnidipine or the solvent only was implanted into each mouse in each group, for prolonged administration.
# [6] = system: model mice of inflammatory bowel disease (DSS); assay: Survival of DSS-induced inflammatory bowel disease model mice; type: in vivo; conditions: osmotic pump 25,000 μg/kg, 17 days, 3% DSS, FIG. 5(b)
# Experimental: Effects of cilnidipine on intractable disease were examined. In this Exemplary Experiment, cilnidipine was administered to model mice of inflammatory bowel disease, and survival rate was examined. The model mice of inflammatory bowel disease employed were mice on which inflammatory bowel disease is inducible by administrating dextran sulfate (DSS).
# FIG. 5(a) is a drawing that illustrates an experiment schedule. From three days before the administrating DSS started, an osmotic pump containing 25,000 μg/kg of cilnidipine was intraperitoneally implanted into each mouse, the drug was administered continuously over 17 days, and the survival rate was measured.
# From the first day (Day 0) the cilnidipine administration started, the mice were fed tap water containing 3% DSS as a drinking water for seven days. Over a period between Day 7 after the start of cilnidipine administration to Day 14, the drinking water was reverted to ordinary tap water. Also a control group was prepared, in which the mice were fed a solvent only in place of cilnidipine.
# [7] = system: H9c2 cell overexpressing A1545T mutant of filamin A gene fused with mCherry tag; assay: Mitochondrial division promoted by overexpressed A1545T mutant of filamin A in H9c2 cells; type: cell-based, murine; conditions: Exemplary Experiment 9, 1 μM, 24 hours, FIG. 9(b)
# Text: A disease called filamin cardiomyopathy has been known to involve A1539T mutation (substitution of adenine at position 1539 to thymine) on filamin-C gene. Then influence of A1545T mutant of filamin A gene, similar to A1539T mutant of filamin-C gene, on the shape of mitochondria of myocardial cell was examined.
# as §1, §2, §3
# [8] = system: SOD1-G93A mice (ALS model); assay: Survival of ALS model mice (SOD1-G93A) with cilnidipine administration; type: in vivo; conditions: osmotic pump 5,000 μg/kg intraperitoneally implanted after onset of ALS, 28 days, FIG. 4(b)
# Experimental: Effects of cilnidipine on intractable disease were examined. In this Exemplary Experiment, cilnidipine was administered to model mice of amyotrophic lateral sclerosis (ALS), and survival rate was examined. The ALS model mice employed were SOD1-G93A mice.
# FIG. 4(a) is a drawing that illustrates an experiment schedule. An osmotic pump containing 5,000 μg/kg of cilnidipine was intraperitoneally implanted into each model mouse after onset of ALS, the drug was administered continuously over 28 days, and the survival rate was measured.
# Drp1-filamin complex, sequence (O00429 whole entry): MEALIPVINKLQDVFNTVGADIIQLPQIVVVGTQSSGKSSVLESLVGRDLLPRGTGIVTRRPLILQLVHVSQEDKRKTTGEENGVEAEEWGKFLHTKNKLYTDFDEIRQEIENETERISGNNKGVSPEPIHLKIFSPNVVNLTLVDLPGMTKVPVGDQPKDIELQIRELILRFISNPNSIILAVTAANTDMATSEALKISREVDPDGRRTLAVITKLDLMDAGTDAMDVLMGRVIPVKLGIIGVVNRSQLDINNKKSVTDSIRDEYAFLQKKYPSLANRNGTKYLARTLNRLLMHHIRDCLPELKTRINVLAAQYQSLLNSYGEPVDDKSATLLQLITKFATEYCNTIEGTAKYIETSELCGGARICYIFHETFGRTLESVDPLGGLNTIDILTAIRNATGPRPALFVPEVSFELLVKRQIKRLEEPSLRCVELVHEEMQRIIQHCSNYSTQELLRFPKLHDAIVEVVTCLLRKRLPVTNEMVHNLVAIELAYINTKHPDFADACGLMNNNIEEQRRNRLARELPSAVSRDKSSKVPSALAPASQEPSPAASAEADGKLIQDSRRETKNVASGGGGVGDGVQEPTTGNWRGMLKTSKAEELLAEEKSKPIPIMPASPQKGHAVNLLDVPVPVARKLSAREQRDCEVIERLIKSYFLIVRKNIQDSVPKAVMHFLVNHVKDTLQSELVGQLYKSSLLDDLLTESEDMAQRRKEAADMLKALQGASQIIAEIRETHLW
# Drp1-filamin complex, sequence (P21333 whole entry): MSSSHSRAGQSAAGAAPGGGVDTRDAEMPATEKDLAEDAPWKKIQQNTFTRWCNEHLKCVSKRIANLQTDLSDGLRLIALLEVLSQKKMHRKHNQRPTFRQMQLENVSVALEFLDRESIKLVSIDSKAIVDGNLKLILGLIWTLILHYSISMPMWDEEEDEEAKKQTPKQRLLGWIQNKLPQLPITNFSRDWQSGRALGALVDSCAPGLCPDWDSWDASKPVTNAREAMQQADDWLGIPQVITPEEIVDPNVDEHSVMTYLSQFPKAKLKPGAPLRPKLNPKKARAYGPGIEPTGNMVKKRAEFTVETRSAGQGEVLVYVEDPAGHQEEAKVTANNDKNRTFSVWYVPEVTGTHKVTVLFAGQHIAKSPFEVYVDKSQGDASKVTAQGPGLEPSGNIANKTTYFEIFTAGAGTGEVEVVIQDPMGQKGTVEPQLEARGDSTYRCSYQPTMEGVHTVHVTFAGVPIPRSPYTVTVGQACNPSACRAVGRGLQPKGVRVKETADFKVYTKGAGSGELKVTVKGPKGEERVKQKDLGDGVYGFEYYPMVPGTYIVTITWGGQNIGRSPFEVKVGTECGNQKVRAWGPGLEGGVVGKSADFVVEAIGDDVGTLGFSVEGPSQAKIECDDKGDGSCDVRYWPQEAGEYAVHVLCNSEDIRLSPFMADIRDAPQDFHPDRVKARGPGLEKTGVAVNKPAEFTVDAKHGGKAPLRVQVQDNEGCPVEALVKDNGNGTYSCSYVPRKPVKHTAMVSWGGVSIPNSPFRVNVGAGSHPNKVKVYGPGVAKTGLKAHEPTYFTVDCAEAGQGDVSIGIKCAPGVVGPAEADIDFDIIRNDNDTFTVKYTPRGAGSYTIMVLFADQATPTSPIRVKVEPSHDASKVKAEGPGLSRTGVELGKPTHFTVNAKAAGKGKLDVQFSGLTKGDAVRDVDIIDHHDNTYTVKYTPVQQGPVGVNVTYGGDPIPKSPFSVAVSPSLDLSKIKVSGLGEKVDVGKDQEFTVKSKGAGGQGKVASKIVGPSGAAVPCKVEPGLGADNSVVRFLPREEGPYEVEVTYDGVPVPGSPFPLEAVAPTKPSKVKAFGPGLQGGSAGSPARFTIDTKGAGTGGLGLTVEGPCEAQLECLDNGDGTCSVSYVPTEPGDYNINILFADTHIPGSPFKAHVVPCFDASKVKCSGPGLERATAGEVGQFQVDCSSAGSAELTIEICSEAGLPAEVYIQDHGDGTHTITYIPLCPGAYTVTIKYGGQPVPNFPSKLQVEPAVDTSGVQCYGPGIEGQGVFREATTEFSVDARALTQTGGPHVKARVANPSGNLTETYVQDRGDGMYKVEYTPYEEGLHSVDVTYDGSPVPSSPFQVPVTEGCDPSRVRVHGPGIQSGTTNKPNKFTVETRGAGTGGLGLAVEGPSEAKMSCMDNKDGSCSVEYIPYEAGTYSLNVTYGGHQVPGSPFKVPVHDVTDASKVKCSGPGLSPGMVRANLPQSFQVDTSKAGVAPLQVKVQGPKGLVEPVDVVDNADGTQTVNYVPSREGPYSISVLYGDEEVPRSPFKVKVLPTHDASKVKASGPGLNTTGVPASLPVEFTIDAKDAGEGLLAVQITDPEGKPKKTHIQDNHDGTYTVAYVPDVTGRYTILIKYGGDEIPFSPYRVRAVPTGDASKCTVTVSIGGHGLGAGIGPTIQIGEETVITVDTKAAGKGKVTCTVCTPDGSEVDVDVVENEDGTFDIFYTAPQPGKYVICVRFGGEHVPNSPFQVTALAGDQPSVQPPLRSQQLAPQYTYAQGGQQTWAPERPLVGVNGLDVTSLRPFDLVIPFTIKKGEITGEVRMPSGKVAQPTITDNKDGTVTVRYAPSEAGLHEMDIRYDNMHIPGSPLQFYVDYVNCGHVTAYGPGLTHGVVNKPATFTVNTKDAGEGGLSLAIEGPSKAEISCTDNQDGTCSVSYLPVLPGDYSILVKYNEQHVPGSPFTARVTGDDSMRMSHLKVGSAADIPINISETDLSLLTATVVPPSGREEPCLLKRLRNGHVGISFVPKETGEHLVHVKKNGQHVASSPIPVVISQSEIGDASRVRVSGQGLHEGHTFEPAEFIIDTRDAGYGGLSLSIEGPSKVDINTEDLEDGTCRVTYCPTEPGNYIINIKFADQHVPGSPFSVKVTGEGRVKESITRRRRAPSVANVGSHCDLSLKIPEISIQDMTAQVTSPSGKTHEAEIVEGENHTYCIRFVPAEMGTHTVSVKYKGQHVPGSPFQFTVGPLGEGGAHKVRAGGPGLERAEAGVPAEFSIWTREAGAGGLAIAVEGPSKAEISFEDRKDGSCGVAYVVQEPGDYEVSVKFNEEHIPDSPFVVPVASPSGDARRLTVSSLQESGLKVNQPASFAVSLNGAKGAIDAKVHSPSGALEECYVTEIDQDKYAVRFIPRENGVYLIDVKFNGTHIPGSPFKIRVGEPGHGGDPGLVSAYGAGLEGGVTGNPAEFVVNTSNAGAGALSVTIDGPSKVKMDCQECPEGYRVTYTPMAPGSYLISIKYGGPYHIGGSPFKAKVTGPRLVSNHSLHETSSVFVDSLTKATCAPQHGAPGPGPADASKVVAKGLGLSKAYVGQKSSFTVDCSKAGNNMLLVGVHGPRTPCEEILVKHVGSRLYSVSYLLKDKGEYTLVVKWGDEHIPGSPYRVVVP
compound,measurement,setting,value
COCCOC(=O)C1=C(C)NC(C)=C(C(=O)OC/C=C/c2ccccc2)C1c1cccc([N+](=O)[O-])c1 (stereo not drawn) [cilnidipine],percentage of blood HbA1c,[1],significant decrease of HbA1c
same,average length of mitochondrial fragments (suppression of mitochondrial division),[2],could not suppress mitochondrial division
same,"blocking effect on the calcium channel (ΔRatio, increase of intracellular calcium ion concentration)","calcium channel; Exemplary Experiment 12, 0, 1, 10, 100, and 1,000 nM, 30 minutes, 60 mM potassium chloride, FIG. 12",showed blocking effects exerted on the calcium channel
same,blocking effect on the calcium channel (ΔRatio),"calcium channel; Exemplary Experiment 15, at 1000 nM, FIG. 15",showed blocking effects on the calcium channel
same,inhibition of formation of the Drp1-filamin complex,Drp1-filamin complex,inhibits formation of the Drp1-filamin complex
same,percentage of p53 accumulating cells relative to α-actinin-positive cells (aging of myocardial cell),[3],suppressive effects over aging of myocardial cell
same,percentage of cells having vesicular mitochondria (suppression of mitochondrial division),"[4]; Exemplary Experiment 2, 1 μM, hypoxic environment 16 hours, FIG. 3",significantly suppress mitochondrial division
same,percentage of cells having vesicular mitochondria (suppression of mitochondrial division),"[4]; Exemplary Experiment 11, 1 μM, hypoxic environment 18 hours, FIG. 11",significantly suppress mitochondrial division
same,blood sugar level,[5],blood sugar level getting closer to the normal level
same,survival rate,[6],significant increase of the survival rate
same,average length of mitochondrial fragments (suppression of mitochondrial division),[7],could not suppress mitochondrial division
same,survival rate,[8],significant elongation of lifetime
